Data published in PubChem BioAssay AID366 (MTDP, 2006).
pIC50: −log10 of the molar value. “And” between values parts separate entries of the source, which are not always exact repeats. Identical values can stand only once. The source made the active and inactive calls. The rule behind the calls is not given here.

biological target: Ribonuclease H1 (Homo sapiens) (UniProt O60930); experiment: human RNase H1 inhibitors, dose response, biochemical, FRET RNA/DNA duplex cleavage (AID 366); details: fluorescence;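 note: potency is for inhibitors that lower RNA cleavage and so lower fluorescence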
Sequence (O60930 whole entry, looked up): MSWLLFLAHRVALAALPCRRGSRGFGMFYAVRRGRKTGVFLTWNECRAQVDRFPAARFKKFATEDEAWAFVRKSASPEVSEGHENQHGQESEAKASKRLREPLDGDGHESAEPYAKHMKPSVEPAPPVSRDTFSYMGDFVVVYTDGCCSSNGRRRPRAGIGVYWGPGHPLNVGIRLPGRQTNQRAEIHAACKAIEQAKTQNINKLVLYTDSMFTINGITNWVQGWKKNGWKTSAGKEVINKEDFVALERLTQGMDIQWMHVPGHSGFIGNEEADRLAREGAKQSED

Compound	pIC50	IC50
O=C1c2ccc(O)cc2C(=O)c2c1ccc(O)c2O	5.15	–
Cc1cc(Cl)ccc1OCC(=O)Nc1sc(C)c(C)c1C(N)=O	5.37	–
Oc1ccc2ccccc2c1C=NCc1c(O)ccc2ccccc12	5.10	–
CC(=O)O[C@H](C)[C@@H]1C2=C(C(=O)C[C@]1(C)O)C(=O)c1c(ccc(-c3ccc4c(c3O)C(=O)C3=C(C4=O)[C@@H]([C@@H](C)OC(C)=O)[C@@](C)(O)CC3=O)c1O)C2=O	5.22	–
O=C1NC(=S)N(c2cccc(Cl)c2)C(=O)/C1=C\C=C\c1ccco1	5.22	–
N#C/C(=C\Nc1ccc(S(=O)(=O)Nc2nccs2)cc1)c1nc(-c2ccc(Cl)cc2)cs1	6.30	–
O=S(=O)(O)c1cc(N=[N+]([O-])c2cc(S(=O)(=O)O)c3ccccc3c2)cc2ccccc12	6.30	–
COc1ccc(-c2nc3sc(-c4ccc(OC)cc4)nc3s2)cc1	–	inactive
CCCCCCCCCCCCCCCCCCOCC(O)CO (centres undefined)	–	> 100000 nM (inactive)
COc1ccc(NC(=O)c2c(N)sc(-c3ccccc3)c2C)cc1	5.70	–
O=C1C(Cl)=C/C(=N\S(=O)(=O)c2ccccc2)C(Cl)=C1Cl	5.39	–
CCOc1cccc(N2C(=O)/C(=C/c3cn(CC(=O)OC)c4ccccc34)C(=O)NC2=S)c1	6.04	–
CC1=c2c(oc3cc(O)c(Nc4c(C)cc(O)cc4O)c(C)c23)=CC(=O)C1=Nc1c(C)cc(O)cc1O	6.52	–
CCCc1cc(=O)oc2c3c(c4c(c12)OC(C)(C)C=C4)O[C@@H](C)[C@H](C)[C@@H]3F	5.17	–
COC(=O)c1cc2c3c(ccc2[nH]1)N(C(=O)c1cc2c4c(ccc2[nH]1)N(C(=O)c1cc2c5c(ccc2[nH]1)N(C(N)=O)CC5)CC4)CC3	6.10	–
Cc1ccc(C2COc3cc(O)c(O)cc3C2)cc1 (centres undefined)	5.32	–
Cc1onc(-c2ccccc2)c1C(=O)Nc1sc(C)c(C)c1C(N)=O	5.10	–
Cc1sc(NC(=O)Cc2ccccc2)c(C(N)=O)c1C	–	inactive
O=S(=O)(Nc1cccc(C(F)(F)F)c1)c1ccc2ccccc2c1	–	inactive
COc1ccccc1N=C(NOCc1ccc(Cl)cc1Cl)c1nonc1N	5.06	–
O=C1O/C(=C(/C(=O)O)c2ccc(O)cc2)C(O)=C1c1cc2c3c(c(O)cc(C4=C(O)/C(=C(\C(=O)O)c5ccc(O)cc5)OC4=O)c3c1)OC2=O	6.22	–
NCC[Se][Se]CCN	5.28	–
Cc1sc(NC(=O)c2ccc(Br)o2)c(C(N)=O)c1C	5.30	–
CC(=O)/C=C/C=C/c1ccc2c(c1)OC(CO)C(c1ccc(O)c(O)c1)O2 (centres undefined)	5.22	–
Cc1ccc(S(=O)(=O)/N=C2\C=CC(=O)C=C2Cl)cc1	5.47	–

Compound	pIC50	IC50
CCOc1ccc(C2=CC(=O)C=CC2=O)cc1	5.24	–
O=C1NC(=S)N(c2ccc(Cl)cc2)C(=O)/C1=C\C=C\c1ccccc1[N+](=O)[O-]	5.15	–
CCCCCCCCCCCCCCCC(=O)OCC1OC(n2ccc(N)nc2=O)C(O)C1O (centres undefined)	6.22	–
Cc1cc(=O)c2c(O)c3c(O)cc(O)c4c5c(O)cc(O)c6c(O)c7c(=O)cc(C)c8c1c2c(c34)c(c65)c78	5.96	–
CCOc1ccc(C(=O)Nc2ccc3c(c2)C(=O)c2ccccc2C3=O)cc1	5.96	–
COC(=O)c1c(N)sc(C(=O)Nc2ccc(OC)cc2)c1C	–	inactive
O=C1c2cc([N+](=O)[O-])ccc2-c2ccc3c4ccc5c6c(ccc(c7ccc1c2c73)c64)C(=O)c1cc([N+](=O)[O-])ccc1-5	6.40	–
O=C(N/N=C/c1ccc(/C=N/NC(=O)c2ccc(O)c(O)c2)cc1)c1ccc(O)c(O)c1	7.40	–
CCOc1ccc(NC(=O)c2c(NC(=O)c3ccco3)sc3c2CCCCC3)cc1	5.68	–
O=C1C(Cl)=CC(=NS(=O)(=O)c2ccccc2)C=C1Cl	5.37	–
Cc1ccc(NC(=O)c2c(NC(=O)C(F)(F)F)sc(-c3ccccc3)c2C)c(C)c1	5.12	–
O=C1/C(=C/c2ccc(O)c(O)c2)SC(=S)N1c1ccc(O)cc1	5.46	–
Cc1sc(NC(=O)c2ccc3c(c2)OCO3)c(C(N)=O)c1C	5.48	–
COc1cc(-c2[o+]c3cc(O)cc(O)c3cc2O)cc(O)c1O	5.62 and 5.40	–
CCN1C(=O)/C(=C/c2ccoc2)C(=O)NC1=S	–	> 100000 nM (inactive)
C=C/C(C)=C/C[C@]1(C)[C@H](C)CC[C@@]23C(=C[C@H](OC(=O)c4ccc(O)c(OC)c4)C[C@@H]12)[C@@H](OC(C)=O)O[C@H]3OC(C)=O	5.40	–
CN1CC(O)C2=CC(=O)C(=O)C=C21 (centres undefined)	5.80	–
O=C1NC(=S)N(c2ccccc2F)C(=O)C1=Cc1ccco1	6.70	–
COc1cc(C)cc2c(-c3c(O)cc(O)c4c3C[C@@H](C)N[C@@H]4C)cc(-c3cc(-c4c(O)cc(O)c5c4C[C@@H](C)N[C@@H]5C)c4cc(C)cc(OC)c4c3O)c(O)c12	5.70	–
O=C1c2ccccc2C(=O)c2c(O)c(O)cc(O)c21	5.38	–
CN(C)S(=O)(=O)c1ccc(Nc2ccc(O)c3c2C(=O)c2c([N+](=O)[O-])ccc(O)c2C3=O)cc1	6.10	–
Cc1ccc(S(=O)(=O)N=C2C=C(Cl)C(=O)C(Br)=C2)cc1	5.33	–
C[C@@H]1Oc2c3c(c4c(-c5ccccc5)cc(=O)oc4c2C(=O)[C@H]1C)OC(C)(C)C=C3	5.51	–
Nc1nc(Sc2ccc([N+](=O)[O-])c3nonc23)c2[nH]cnc2n1	–	inactive
O=C1/C(=C\c2ccc(O)c(O)c2)SC(=S)N1c1cccc(Cl)c1	5.80	–

Compound	pIC50	IC50
Cc1cc(O)c2c(c1O)C(=O)c1cccc(O)c1C2=O	–	inactive
O=c1oc2ccccc2c(O)c1/C=C1\C=Nc2ccccc21	5.01	–
Ic1ccc2c(c1)N(c1ccccc1)c1cc(N=c3ccc4nc5ccc(I)cc5n(-c5ccccc5)c-4c3)ccc1N2	6.52	–
C=Cc1c(C)c2cc3[nH]c(cc4nc(cc5nc(cc1[nH]2)C(C)=C5CCC(=O)O)C(CCC(=O)O)=C4C)c(C)c3C=C	6.70	–
C=C1C(=O)O[C@@H]2/C=C(\C)CC/C=C(\C(=O)O)CC/C=C(\C)CC[C@H]12	5.51	–
O=C(Nc1sc2c(c1C(=O)Nc1cccc3ccccc13)CCCCC2)c1ccccc1F	5.32	–
CC(C)=CCc1ccc(O)c(=O)cc1C(C)C	–	inactive
Nc1ccc(N=Nc2ccc(-c3ccc(O)cc3)cc2)c2ccc(S(=O)(=O)O)cc12	5.32	–
C[C@@H]1[C@H](O)c2c(c3c(c4c(-c5ccccc5)cc(=O)oc24)OC(C)(C)C=C3)O[C@@H]1C	5.32	–
C[C@]12CC[C@H]3[C@@H](CCC4=CC(=O)CC[C@@]43C)[C@@H]1CC[C@@H]2C(=O)COS(=O)(=O)c1ccc(Br)cc1	5.96	–
Oc1cc(O)c2c(c1)OC(c1ccc(O)c(O)c1)C(OC1(c3cc(O)c(O)c(O)c3)Oc3cc(O)cc(O)c3C(O)C1O)C2 (centres undefined)	5.62	–
COc1ccc(-c2c(C#N)c(N)nc(SCC(=O)c3ccc(O)c(O)c3)c2C#N)cc1	5.96	–
O=C1/C(=C/c2ccco2)C(=O)N(c2ccc(Br)cc2)C(=S)N1c1ccccc1	5.36	–
O=C1NC(=S)N(c2ccccc2F)C(=O)/C1=C/c1ccc(I)o1	5.52	–
O=C1NC(=S)S/C1=C/c1cccc(OCc2ccc(Cl)c(Cl)c2)c1	5.14	–
Cc1cc(-c2ccc(C=C3C(=O)NC(=S)NC3=O)o2)c([N+](=O)[O-])cc1C	5.40	–
O=C1CC(=O)c2ccc3c4c(ccc1c24)C(=O)CC3=O	6.40	–
O=C1C=CC(=NS(=O)(=O)c2ccc(Cl)c([N+](=O)[O-])c2)C=C1	5.68	–
Oc1c(Br)cc(/C=N/Nc2nnc3c(n2)[nH]c2ccccc23)c(Br)c1O	6.52	–
O=c1c(O)cccc2cc(O)c(O)c(O)c12	6.05	–
O=C1c2ccccc2C(=O)c2c1cc(O)c(O)c2O	6.22	–
S=C(Nc1ccc2c(c1)Cc1ccccc1-2)Nc1ccc2c(c1)Cc1ccccc1-2	5.89	–
C=CCn1c(N)c(-c2nc3ccccc3[nH]2)sc1=S	–	inactive
CCOc1ccc(NC(=O)c2c(NC(=O)c3ccccc3)sc3c2CCCCC3)cc1	5.96	–
O=C(Oc1ccccc1)Oc1c(Cl)cc2oc(=O)sc2c1Cl	5.52	–

Compound	pIC50	IC50
CC1Oc2cc3c(-c4c(O)cc(O)c5c(O)c6c(cc45)OC(C)C(C)C6=O)c(O)cc(O)c3c(O)c2C(=O)C1C (centres undefined)	5.57	–
CC(C)c1ccc(O)c(=O)cc1	–	inactive
O=C1NN(c2ccc(I)cc2)C(=O)/C1=C\c1ccc(O)c(O)c1	5.08	–
CCCc1cc(=O)oc2c3c(c4c(c12)OC(C)(C)C=C4)O[C@H](C)[C@@H](C)[C@H]3OC	5.31	–
COc1ccc(C2COc3cc(O)c(O)cc3C2)cc1 (centres undefined)	5.55	–
O=C1NC(=S)N(c2ccc(Cl)cc2)C(=O)/C1=C/c1ccco1	–	inactive
CC1C2C=CC1C(c1c3ccc(=O)c(O)c-3oc3c(O)c(O)ccc13)C2C(=O)O (centres undefined)	7.15	–
COc1ccc(N2C(=O)/C(=C/c3ccc(I)o3)C(=O)NC2=S)cc1	5.92	–
CC(C)=Cc1cc(CCC/C(C)=C/Cc2c(O)cc(C)c(C(=O)O)c2O)co1	5.96	–
NC(=O)c1c(N)sc2c1CCCCC2	–	inactive
O=C1C=CC(=O)C(c2cccc(Cl)c2)=C1	5.41	–
c1ccc(C(c2cccc3c2ccc2ccccc23)C(c2ccccc2)c2cccc3c2ccc2ccccc23)cc1 (centres undefined)	5.44	–
CCOC(=O)Oc1c(OC)cc(C(=O)O[C@@H]2C[C@@H]3CN4CCc5c([nH]c6cc(OC)ccc56)[C@H]4C[C@@H]3[C@H](C(=O)OC)[C@H]2OC)cc1OC	–	inactive
O=C1C(Cl)=C(Nc2ccc(S(=O)(=O)Nc3ccccn3)cc2)C(=O)c2ccccc21	–	inactive
Cc1sc(NC(=O)c2cccc([N+](=O)[O-])c2)c(C(N)=O)c1C	6.15	–
CC1=C(CCC(=O)O)c2cc3nc(cc4[nH]c(cc5[nH]c(cc1n2)c(C)c5C(C)O)c(C)c4C(C)O)C(C)=C3CCC(=O)O (centres undefined)	6.40	–
O=[N+]([O-])c1c(Cl)cccc1-c1c[nH]cc1Cl	–	> 100000 nM (inactive)
CC(C)c1cccc(O)c(=O)c1	–	> 100000 nM (inactive)
Cc1ccc(NC(=O)c2c(NC(=O)c3ccccc3F)sc3c2CCCCC3)cc1	6.49	–
Cc1cc(Br)ccc1N1C(=O)/C(=C/c2ccco2)C(=O)NC1=S	6.10	–
Cc1cc(-c2ccco2)c(C#N)c(SCC(=O)c2ccc(O)c(O)c2)n1	5.74	–
COc1ccc(/C=C\C(=O)c2c(-c3ccccc3)c3cc(C)ccc3[nH]c2=O)c(OC)c1	5.08	–
Cc1ccc(C=C2C(=O)NC(=S)N(c3ccccc3Cl)C2=O)o1	–	inactive
NC(=O)c1c(NC(=O)CCc2ccccc2)sc2c1CCCCCC2	5.74	–
